According to patent US20200323950A1, “ANTIBACTERIAL PEPTIDES AND COMBINATIONS FOR CO-THERAPY” (priority 2017, published 2020):
Where “and” joins values, the source holds several entries; their conditions need not be identical. Equal entries are not always repeated. *1 amine or outer side, *2 acyl side, *3 side chain or, on linkers, in order; H or OH if unused. Where a SMILES comes first, the peptide text is derived from it. Bridges are numbered along the chain shown (N, C = ends). Roman numbers before positions name the chains, in order. Where no end group is shown, it is not given here. [ ]: non-standard residue; d: D form. The star is where a group is joined. X2 = O=C1NC(=O)C(SC[C@@H](CO)N[*:2])=C1SC[C@@H](CO)N[*:1]; BMH = O=C1CC([*:1])C(=O)N1CCCCCCN1C(=O)CC([*:2])C1=O; Maleimide(3,4-diyl) = O=C1NC(=O)C([*:2])=C1[*:1]; pXylylene = c1cc(C[*:2])ccc1C[*:1]; aThr = C[C@H](O)[C@H](N)C(=O)O; Ac6c = NC1(C(=O)O)CCCCC1; X1 = C(=C\C[*:2])/C[*:1]; Dab = NCC[C@H](N)C(=O)O; Nva = CCC[C@H](N)C(=O)O; NHNH2 = NN*

How the values were obtained:
E. coli ATCC 29222 = assay: Antibacterial assay (MIC); assay type: cell-based; conditions: E. coli ATCC 29222, MHB, 37° C.
Method: (§1) Antibacterial assay. Antibacterial assays are undertaken to determine the minimal inhibitory concentrations (MIC) as described previouslyl^6.
(§2) Antibacterial activity. Each C-terminal modified PrAMP DTM-linked tetramer is assayed against nosocomial Gram-negative bacteria, including E. coli ATCC 29222, K. pneumoniae ATCC 13883, A. baumannii ATCC 19606 and P. aeruginosa ATCC 47085.

K. pneumoniae ATCC 13883 = assay: Antibacterial assay (MIC); assay type: cell-based; conditions: K. pneumoniae ATCC 13883, MHB, 37° C.
Method: as §1, §2

A. baumannii ATCC 19606 = assay: Antibacterial assay (MIC); assay type: cell-based; conditions: A. baumannii ATCC 19606, MHB, 37° C.
Method: as §1, §2

P. aeruginosa ATCC 47085 = assay: Antibacterial assay (MIC); assay type: cell-based; conditions: P. aeruginosa ATCC 47085, MHB, 37° C.
Method: as §1, §2

E. coli = assay: Synergy results for co-administration of A3-APO (ARV-1501); assay type: cell-based; conditions: antibiotic co-administered with A3-APO (ARV-1501)
K. pneumoniae = assay: as above; assay type: cell-based
Method: Restoring antibiotic sensitivity to resistant bacteria. A colistin-resistant, carbapenem-resistant strain of K. pneumonia (K97/09) from a clinical isolate was used to test the effect of A3-APO treatment on antibiotic resistance. An in vitro assay measuring visible bacterial growth in the presence of A3-APO and imipenem or colistin was performed.
Synergy Results for Co-administration of A3-APO (ARV-1501)

H. influenzae = assay: as above; assay type: cell-based; conditions: antibiotic co-administered with A3-APO (ARV-1501)
K. pneumoniae K97/09 [1] = assay: Bacteremia Synergy Assay 1 (mouse systemic infection); assay type: in vivo; conditions: 10 mg/kg sc (Group 4), monotherapy
Method: (§3) In vivo Studies. Animals. Assays 1-2. NMRI (Naval Medical Research Institute) BR or CD-1 mice (Toxi-Coop Zrt, Budapest, Hungary) were housed in plastic type 2 cages, 3-5 mice per cage, on softwood granules as bedding. The room was kept between 21° C. and 25° C. with 12 h light:12 h dark cycles. The animals had free access to tap water and pelleted rodent food. Upon completion of the experiments, surviving mice were euthanized by diethyl ether inhalation. Animals were maintained and handled in accordance with the recommendations of the Guidelines for the Care and Use of Laboratory Animals, and the protocols were approved by the Animal Care Committee of Semmelweis University. The planned 15 treatment groups of mice were divided roughly equally into two assays with 8 and 7 treatment groups and untreated controls in each assay for safe and humane handling of large numbers of mice.
(§4) Infection models. NMRI mice weighing approximately 20 g (4 weeks old) were infected by intraperitoneal (ip) injection of 4×10^8 CFU/g K. pneumoniae K97/09. Mice were randomly allocated to 8 and […] groups (5 mice per group).
Bacteremia Synergy Assay 1.
Group 1: phosphate buffered saline (PBS) subcutaneously (sc) 1 h after infection. Group 2: imipenem 30 mg/kg sc at 2, 14 and 26 h after infection. […]
Survival was recorded hourly 24-36 h after infection. […]

K. pneumoniae K97/09 [2] = assay: Bacteremia Synergy Assay 2 (mouse systemic infection); assay type: in vivo
Method: as §3, §4
Bacteremia SYNERGY ASSAY 2.
Group 1: PBS sc 1 h after infection. Group 2: Colistin 1 mg/kg sc at 2 and 13 h after infection. Group 3: A3-APO 1 mg/kg im 1 and 12 h after infection. Group 4: A3-APO 1 mg/kg im 1 and 12 h after infection, colistin 1 mg/kg sc at 2 and 13 h after infection. […]

[3] = test system: multidrug-resistant Acinetobacter baumannii BAA-1605; conditions: A. baumannii BAA-1605, compound alone
[4] = test system: multidrug-resistant Klebsiella pneumoniae K97/09; conditions: K. pneumoniae K97/09, compound alone
[5] = test system: Klebsiella pneumoniae K97/09; assay: Checkerboard synergy assay (FIC index); assay type: cell-based; conditions: K. pneumoniae K97/09
Method: In vitro activity and synergy. Minimal inhibitory concentration (MIC) assays were performed using sterile 96-well polypropylene plates in a final volume of […]. Briefly, 50 μL of midlogarithmic phase bacterial cultures were diluted to 5×10^5 CFU/mL in Mueller-Hinton broth (MHB) and then added to 50 μL of the serially diluted antibiotic. The highest A3-APO and other test compound concentration evaluated was 256 mg/L. Cultures were incubated at 37° C. for 16-20 h without shaking. MICs were identified as the lowest antimicrobial concentrations at which turbidity was not observed. Antimicrobial synergy was determined by evaluating the fractional inhibitory concentration (FIC) index and was characterized by a conventional checkerboard assay (Fernandez-Cuenca et al., 2003). Bacteria grown to mid-logarithmic phase in MHB were pre-incubated with serially diluted concentrations of peptides such as A3-APO, and the antimicrobial controls, imipenem, colistin or meropenem.
The sum of the FICs (Σ FIC) was calculated with the equation Σ FIC=FICA+FICB=(CA/MICA)+(CB/MICB), where MICA and MICB are the MICs of antimicrobial A and B alone, respectively, and CA and CB are the concentrations of the drugs when combined, respectively. Synergy was defined as a Σ FICs≤0.5 and additive activity was defined as a Σ FICs>0.5≤1.0.

[6] = test system: Acinetobacter baumannii BAA-1605; assay type: cell-based; conditions: A. baumannii BAA-1605
Method: In vitro activity and synergy. Minimal inhibitory concentration (MIC) assays were performed using sterile 96-well polypropylene plates in a final volume of 100 mL. Briefly, 50 μL of midlogarithmic phase bacterial cultures were diluted to 5×10^5 CFU/mL in Mueller-Hinton broth (MHB) and then added to 50 μL of the serially diluted antibiotic. […] MICs were identified as the lowest antimicrobial concentrations at which turbidity was not observed. Antimicrobial synergy was determined by evaluating the fractional inhibitory concentration (FIC) index and was characterized by a conventional checkerboard assay (Fernandez-Cuenca et al., 2003).

| Compound | Antibacterial activity, MIC (E. coli ATCC 29222) [µM] | Antibacterial activity, MIC (K. pneumoniae ATCC 13883) [µM] | Antibacterial activity, MIC (A. baumannii ATCC 19606) [µM] | Antibacterial activity, MIC (P. aeruginosa ATCC 47085) [µM] | also measured |
| --- | --- | --- | --- | --- | --- |
| I: H-[Ac6c]RPDKPRPYLPRPRPPRPVR[Dab]-NHNH2 / II: H-[Ac6c]RPDKPRPYLPRPRPPRPVR (amide I:21-II:C) [dimer-NHNH2] | 2.99 ± 1.00 | 3.63 ± 0.02 | 5.31 ± 0.73 | 3.01 ± 0.18 | – |
| O=C(N[C@H](CO)[C@H](O)c1ccc([N+](=O)[O-])cc1)C(Cl)Cl [chloramphenicol] | – | – | – | – | Outcome (E. coli): MIC lowered with priming; Outcome (K. pneumoniae; antibiotic co-administered with A3-APO (ARV-1501)): MIC lowered with priming; Outcome (H. influenzae): MIC lowered with priming |
| I: [Ac6c]RPDKPRPYLPRPRPPRPVR[Dab]C-NHNH2 / II: [Ac6c]RPDKPRPYLPRPRPPRPVR[Dab]C-NHNH2 / III: [Ac6c]RPDKPRPYLPRPRPPRPVR / IV: [Ac6c]RPDKPRPYLPRPRPPRPVR (amide I:21-III:C, II:21-IV:C; linker I:22-II:22 via X1) [tetramer-butene-NHNH2] | 0.94 ± 0.04 | 0.81 ± 0.02 | 1.89 ± 0.63 | 0.77 ± 0.02 | – |
| CC1(C)S[C@@H]2[C@H](NC(=O)[C@H](N)c3ccc(O)cc3)C(=O)N2[C@H]1C(=O)O [amoxicillin] | – | – | – | – | Outcome (E. coli): reversal of TEM-1 related; Outcome (H. influenzae): MIC lowered with priming |
| colistin | – | – | – | – | survival (K. pneumoniae K97/09 [1]): 60%; reduction of the bacterial burden (K. pneumoniae K97/09 [2]; colistin 1 mg/kg sc (Group 2), after 6 h): < 1 log 10 unit; survival at 36 h (K. pneumoniae K97/09 [2]; colistin 1 mg/kg sc twice (Group 2), monotherapy): 40%; MIC [3]: < 0.5 µg/mL; MIC [4]: 64 µg/mL; MIC of the antibiotic before co-administration (decrease from) (K. pneumoniae; antibiotic without A3-APO): > 64; MIC of the antibiotic on co-administration (decrease to) (K. pneumoniae; co-administered with A3-APO (ARV-1501)): 1 |
| CCC[C@H](NC(=O)[C@H](CCC(=O)O)NC(=O)[C@@H](N)[C@H](C)O)C(=O)N[C@H](C(=O)N[C@@H](C)C(=O)N[C@@H](CC(C)C)C(=O)N[C@@H](CO)C(=O)N[C@@H](CCCNC(=N)N)C(=O)NC1(C(N)=O)CCCCC1)C(C)C [Allo-aca] (H-[aThr]E[Nva]VALSR[Ac6c]-NH2; N-terminus and C-terminus assumed) | – | – | – | – | improvement in the MIC values when added together with imipenem or colistin [5]: failed to exert any improvement; improvement in the MIC values when added together with imipenem or colistin [6]: failed to exert any improvement |
| I: [Ac6c]RPDKPRPYLPRPRPPRPVR[Dab]C-NHNH2 / II: [Ac6c]RPDKPRPYLPRPRPPRPVR[Dab]C-NHNH2 / III: [Ac6c]RPDKPRPYLPRPRPPRPVR / IV: [Ac6c]RPDKPRPYLPRPRPPRPVR (amide I:21-III:C, II:21-IV:C; linker I:22-II:22 via pXylylene) [tetramer-xylene-NHNH2] | 6.24 ± 0.53 | 4.49 ± 0.56 | 12.70 ± 0.96 | 1.51 ± 0.33 | – |
| I: H-[Ac6c]RPDKPRPYLPRPRPPRPVR[Dab]-NH2 / II: H-[Ac6c]RPDKPRPYLPRPRPPRPVR (amide I:21-II:C) [A3-APO, (H-Chex-Arg-Pro-Asp-Lys-Pro-Arg-Pro-Tyr-Leu-Pro-Arg-Pro-Arg-Pro-Pro-Arg-Pro-Val-Arg)2-Dab] | 2.58 ± 1.14 | 1.44 ± 0.12 | 8.00 ± 1.09 | 3.13 ± 0.05 | MIC [3]: 32 µg/mL; MIC [4]: 32 to 64 µg/mL and 32 µg/mL |
| I: [Ac6c]RPDKPRPYLPRPRPPRPVR[Dab] / II: [Ac6c]RPDKPRPYLPRPRPPRPVR[Dab] / III: [Ac6c]RPDKPRPYLPRPRPPRPVR / IV: [Ac6c]RPDKPRPYLPRPRPPRPVR (amide I:21-III:C, II:21-IV:C; linker I:C-II:C via X2) [tetramer-DTM-ol] | 3.67 ± 0.25 | 2.20 ± 0.01 | 11.61 ± 1.44 | 1.86 ± 0.07 | – |
| I: H-[Ac6c]RPDKPRPYLPRPRPPRPVR[Dab]C-NH2 / II: H-[Ac6c]RPDKPRPYLPRPRPPRPVR[Dab]C-NH2 / III: H-[Ac6c]RPDKPRPYLPRPRPPRPVR / IV: H-[Ac6c]RPDKPRPYLPRPRPPRPVR (amide I:21-III:C, II:21-IV:C; linker I:22-II:22 via Maleimide(3,4-diyl)) [tetramer-DTM-NH2] | 2.96 ± 0.99 | 2.33 ± 0.01 | 13.29 ± 0.10 | 2.05 ± 0.08 | – |
| I: [Ac6c]RPDKPRPYLPRPRPPRPVR[Dab]C-NHNH2 / II: [Ac6c]RPDKPRPYLPRPRPPRPVR[Dab]C-NHNH2 / III: [Ac6c]RPDKPRPYLPRPRPPRPVR / IV: [Ac6c]RPDKPRPYLPRPRPPRPVR (amide I:21-III:C, II:21-IV:C; linker I:22-II:22 via BMH) [tetramer-bismal-NHNH2] | 3.93 ± 0.04 | 3.18 ± 0.03 | 10.35 ± 0.22 | 1.62 ± 0.11 | – |
